Measured values: patent US4191780A, “Bromhexine derivatives and process for making same” (priority 1978, dated 1980)

Tests used:
[1] = Bromsulphtalein (BSP) clearance in rats treated with the lower dose; assay type: in vivo; settings: 30 min after 50 mg/kg BSP i.v., lower dose of drug
Description: The possibility to use BSP for the diagnosis of lesions in liver parenchyma is well known. Bromsulphtalein (BSP) clearance was made according to Carpi and Parenti (Carpi, C. and M. A. Parenti, Il Farmaco, Ed. Pr. vol. 17, page 45, 1962). Thirty minutes after the i.v. administration of 50 mg/kg BSP to control rats, the mean plasma level of the dyestuff is 80±12 mcg/ml.
% of rate showing BSP plasma levels greater than 80 mcg/ml
(control values) and 160 mcg/ml (two-fold control values)

[2] = Eight-day toxicity studies in mice, lethality (i.p.); assay type: in vivo; settings: for Total number of deaths: 8 days
Source text: Eight-day toxicity studies of IFT 1026 and Bromhexine in mice.

[3] = tested on: Pain induced by a physical stimulation; assay: Hot-plate Test (Eddy and Leimbach): pain induced by a physical stimulation; assay type: in vivo, mice; settings: mouse, 300 mg/kg oral, plate at 57° C.
Description: (§1) Two test methods are used for establishing the action of Bromhexine and IFT 1026 on noci-ceptive stimuli in mice.
(§2) (b) Pain induced by a physical stimulation according to the hot-plate test technique by Eddy and Leimbach (Eddy, N. B. and Leimbach, O., J. Pharmacol. exp.Ther. 107, 383--1953). The temperature of the plate was kept at 57° C. Groups of 12 mice are treated as described under (a) above. The reaction times are measured 15 min. before treatment (Ro) and 4 times after the administration (every 15 min). Only the maximal response is taken into account (Rmax).

[4] = Long-term toxicity in rats: hematological parameters; assay type: in vivo, rat; settings: daily oral Bromhexine 250 mg/kg, IFT 1026 350 mg/kg
Description: The hematological and biochemical values relating to the groups under treament with the above reported doses are shown in Tables Nos. 4 and 5. These values are virtually the same for both treated and control animals.
Effect of daily oral administration of Bromhexine 250 mg/kg
and IFT 1026 350 mg/kg on the hematological parameters in […]

noci-ceptive stimuli = assay: Study of analgesic action on mice (both tests); assay type: in vivo; settings: 300 mg/kg oral
Description: as §1
(§3) (a) Pain induced by a chemical stimulus according to the method of Siegmund (Siegmund E., Cadmier, R., and Lu, G. Proc. Soc. exp. Biol. N.Y. 95, 729--1957). The mice distributed at random into groups of 10 animals, are deprived of solid food for the 18-hour period prior to the test. […] Thirty minutes after treatment the mice are injected i.p. with 0.1 ml/10 g of a 1.5% acetic acid solution. The writhing is recorded for a 20 min. period following this i.p. injection.
as §2

[5] = Long-term toxicity in rats (16 weeks): mean body weight; assay type: in vivo
Source text: Effect of daily oral administration of various doses of
IFT 1026 and Bromhexine on mean body weight of rats.

[6] = tested on: Cough elicited by 15% citric acid spray; assay: Antitussive activity in Guinea-pigs, citric acid spray cough; assay type: in vivo; settings: Cavia porcellus, ip, 0.5 h, intraperitoneal, 30 min. after application, confidence limits P = 0.05
Description: (§4) (6) Antitussive effect in Guinea-pigs and mice
(§5) Cough is elicited by 15% citric acid spray in both species, according to the method by Harsany et al. (Boll. Chim. Farm. 112, 691, 1973). The effect was tested 1 hour after oral administration and 30 min. after intraperitoneal application of the antitussive agents on mice and Guinea-pigs respectively.
(§6) ED50 values of the drugs are computed by the method of Litchfield and Wilcoxon (Litchfield, J. T. Jr., and Wilcoxon F., J. Pharmacol. exp. Ther. 96,99--1949).

[7] = Long-term toxicity in rats: mortality, pathology and general state; settings: rat, in vivo
Description: Long-term toxicity (16 weeks) of IFT 1026 is tested in comparison to the parent compound (Bromhexine).

[8] = Long-term toxicity in rats: organ weights at necropsy; assay type: in vivo; settings: fresh weight, daily oral 250 mg/kg Bromhexine, 350 mg/kg IFT 1026
Description: Effect of daily oral administration of 250 mg/kg Bromhexine and 350 mg/kg
organ weights of rats, expressed as grams of fresh weight.

[9] = tested on: Pain induced by a chemical stimulus; assay: Siegmund Test: pain induced by a chemical stimulus (acetic acid writhing); assay type: in vivo, mice; settings: mouse, 300 mg/kg oral
Description: as §1, §3

[10] = tested on: Cough elicited by 15% citric acid spray; assay: Antitussive activity in mice, citric acid spray cough; assay type: in vivo; settings: Mus musculus, oral, 1 hour after administration, confidence limits P = 0.05
Description: as §4, §5, §6

[11] = Long-term toxicity in rats: biochemical parameters; assay type: in vivo, rat; settings: daily oral 250 mg/kg Bromhexine, 350 mg/kg IFT 1026

CN(Cc1cc(Br)cc(Br)c1N)C1CCCCC1 [Bromhexine, N-cyclohexyl-N-methyl-2-(2-amino-3,5-dibromo)benzylammonium chloride]
% showing BSP plasma levels >160 mcg/ml ([1]; X^2 = 0.43, N.S.): 12% | rats showing BSP plasma levels >160 mcg/ml, number/tested ([1]; X^2 = 0.43, N.S.): 2/17 | % showing BSP plasma levels >80 mcg/ml ([1]; X^2 = 0.7, N.S.): 41% | rats showing BSP plasma levels >80 mcg/ml, number/tested ([1]; X^2 = 0.7, N.S.): 7/17 | Number of deaths at day 3 ([2]; daily dose 300 mg/k): 1 | Number of deaths at day 6 ([2]; daily dose 300 mg/k): 1 | Total number of deaths ([2]; daily dose 300 mg/k): 2/10 | Number of deaths at day 3 ([2]; daily dose 600 mg/k): 1 | Number of deaths at day 5 ([2]; daily dose 600 mg/k): 1 | Number of deaths at day 6 ([2]; daily dose 600 mg/k): 1 | Number of deaths at day 7 ([2]; daily dose 600 mg/k): 1 | Number of deaths at day 8 ([2]; daily dose 600 mg/k): 1 | Total number of deaths ([2]; daily dose 600 mg/k): 5/10 | Hot-plate Test (R max/Ro), mean ± SE [3]: 1.5 ± 0.18 | RBC, mean ± SE ([4]; females): 752 ± 37 10^6 /ml | WBC, mean ± SE ([4]; females): 132 ± 5 10^2 /ml | RBC, mean ± SE ([4]; males): 774 ± 63 10^6 /ml | WBC, mean ± SE ([4]; males): 168 ± 20 10^2 /ml | Responses to algogenic stimuli (noci-ceptive stimuli): not suppressed | body weight, mean ± SE ([5]; females, 50 mg/kg daily oral, 0 days): 110 ± 5 g | body weight, mean ± SE ([5]; females, 50 mg/kg daily oral, 21 days): 174 ± 2 g | body weight, mean ± SE ([5]; females, 50 mg/kg daily oral, 45 days): 217 ± 4 g | body weight, mean ± SE ([5]; females, 50 mg/kg daily oral, 60 days): 229 ± 4 g | body weight, mean ± SE ([5]; females, 250 mg/kg daily oral, 0 days): 109 ± 6 g | body weight, mean ± SE ([5]; females, 250 mg/kg daily oral, 21 days): 158 ± 5 g | body weight, mean ± SE ([5]; females, 250 mg/kg daily oral, 45 days): 206 ± 4 g | body weight, mean ± SE ([5]; females, 250 mg/kg daily oral, 60 days): 230 ± 3 g | body weight, mean ± SE ([5]; females, 1000 mg/kg daily oral, 0 days): 117 ± 6 g | body weight, mean ± SE ([5]; females, 1000 mg/kg daily oral, 21 days): 147 ± 13 g | body weight, mean ± SE ([5]; females, 1000 mg/kg daily oral, 45 days): 157 ± 7 g | body weight, mean ± SE ([5]; females, 1000 mg/kg daily oral, 60 days): 188 ± 12 g | body weight, mean ± SE ([5]; males, 50 mg/kg daily oral, 0 days): 115 ± 9 g | body weight, mean ± SE ([5]; males, 50 mg/kg daily oral, 21 days): 225 ± 6 g | body weight, mean ± SE ([5]; males, 50 mg/kg daily oral, 45 days): 295 ± 7 g | body weight, mean ± SE ([5]; males, 50 mg/kg daily oral, 60 days): 365 ± 7 g | body weight, mean ± SE ([5]; males, 250 mg/kg daily oral, 0 days): 118 ± 12 g | body weight, mean ± SE ([5]; males, 250 mg/kg daily oral, 21 days): 218 ± 7 g | body weight, mean ± SE ([5]; males, 250 mg/kg daily oral, 45 days): 285 ± 8 g | body weight, mean ± SE ([5]; males, 250 mg/kg daily oral, 60 days): 355 ± 9 g | body weight, mean ± SE ([5]; males, 1000 mg/kg daily oral, 0 days): 110 ± 7 g | body weight, mean ± SE ([5]; males, 1000 mg/kg daily oral, 21 days): 180 ± 9 g | body weight, mean ± SE ([5]; males, 1000 mg/kg daily oral, 45 days): 250 ± 8 g | body weight, mean ± SE ([5]; males, 1000 mg/kg daily oral, 60 days): 290 ± 12 g | variations in the body weights versus control group ([5]; rats, exception: Bromhexine 1000 mg/kg/day): lower values than their control group | ED50 [6]: 143 mg/kg | animals that died during the study [7]: Five | rats displaying liver steatosis [7]: Four | organ weight, Adrenal glands ([8]; females): 4.7 ± 0.1 10^-2 grams | organ weight, Brain ([8]; females): 19.7 ± 0.5 10^-1 grams | organ weight, Heart ([8]; females): 8.3 ± 0.2 10^-1 grams | organ weight, Kidneys ([8]; females): 18.8 ± 0.9 10^-1 grams | organ weight, Liver ([8]; females): 10.5 ± 0.2 grams | organ weight, Lungs ([8]; females): 14.4 ± 0.9 10^-1 grams | organ weight, Spleen ([8]; females): 7.9 ± 0.2 10^-1 grams | organ weight, Adrenal glands ([8]; males): 3.8 ± 0.2 10^-2 grams | organ weight, Brain ([8]; males): 14 ± 1 10^-1 grams | organ weight, Heart ([8]; males): 8.8 ± 1.4 10^-1 grams | organ weight, Kidneys ([8]; males): 18.4 ± 0.5 10^-1 grams | organ weight, Liver ([8]; males): 10.6 ± 0.2 grams | organ weight, Lungs ([8]; males): 11.6 ± 1.7 10^-1 grams | organ weight, Spleen ([8]; males): 6 ± 0.6 10^-1 grams | Siegmund Test, number of writhings for a 20 min. period, mean ± SE [9]: 32 ± 3 | ED50 [10]: 194 mg/kg | A/G ratio (Albumin/Globulin), mean ± SE ([11]; females): 2.6 ± 0.1 | BUN, mean ± SE ([11]; females): 44.9 ± 4 mg % | GLUCOSE, mean ± SE ([11]; females): 77.1 ± 9 mg % | SGOT, mean ± SE ([11]; females): 24.1 ± 0.5 Units/ml | SGPT, mean ± SE ([11]; females): 12.6 ± 0.3 Units/ml | TOTAL PROTEIN, mean ± SE ([11]; females): 25.8 ± 1.1 mg/mL | A/G ratio (Albumin/Globulin), mean ± SE ([11]; males): 2.4 ± 0.2 | BUN, mean ± SE ([11]; males): 34.5 ± 3 mg % | GLUCOSE, mean ± SE ([11]; males): 88.5 ± 6 mg % | SGOT, mean ± SE ([11]; males): 24.8 ± 0.5 Units/ml | SGPT, mean ± SE ([11]; males): 12.7 ± 0.15 Units/ml | TOTAL PROTEIN, mean ± SE ([11]; males): 27.1 ± 2.5 mg/mL
